Results as given in the NIST ThermoML archive (doi:10.1016/j.fluid.2010.10.028).

Assay: xn = mol fraction of the nth substance listed
Conditions: Liquid, Vibrating tube method

CC(C)=O [acetone] + CCCCCCC
Conditions	mass density [kg/m3]
397.26 K, 104690 kPa, x1 = 0.8992	764.67
397.26 K, 109670 kPa, x1 = 0.4	767.98
397.26 K, 109670 kPa, x1 = 0.8992	767.98
397.26 K, 114610 kPa, x1 = 0.4	771.16
397.26 K, 114610 kPa, x1 = 0.8992	771.16
397.26 K, 119600 kPa, x1 = 0.4	774.27
397.26 K, 119600 kPa, x1 = 0.8992	774.27
397.27 K, 1520 kPa, x1 = 0.611	608
397.27 K, 4850 kPa, x1 = 0.801	635.17
397.27 K, 4860 kPa, x1 = 0.611	616.98
397.27 K, 9850 kPa, x1 = 0.801	646.73
397.27 K, 9870 kPa, x1 = 0.611	628.41
397.27 K, 10000 kPa, x1 = 0.4	660.81
397.27 K, 10000 kPa, x1 = 0.8992	660.81
397.27 K, 14860 kPa, x1 = 0.801	656.72
397.27 K, 19840 kPa, x1 = 0.801	665.54
397.27 K, 19860 kPa, x1 = 0.611	646.79
397.27 K, 24850 kPa, x1 = 0.611	654.54
397.27 K, 24870 kPa, x1 = 0.801	673.51
397.27 K, 24950 kPa, x1 = 0.4	687.4
397.27 K, 24950 kPa, x1 = 0.8992	687.4
397.27 K, 29850 kPa, x1 = 0.611	661.6
397.27 K, 34860 kPa, x1 = 0.801	687.43
397.27 K, 34870 kPa, x1 = 0.611	668.12
397.27 K, 34940 kPa, x1 = 0.4	701.35
397.27 K, 34940 kPa, x1 = 0.8992	701.35
397.27 K, 39870 kPa, x1 = 0.611	674.11
397.27 K, 39930 kPa, x1 = 0.4	707.57
397.27 K, 39930 kPa, x1 = 0.8992	707.57
397.27 K, 44850 kPa, x1 = 0.801	699.35
397.27 K, 44870 kPa, x1 = 0.611	679.73
397.27 K, 49850 kPa, x1 = 0.611	684.97
397.27 K, 49850 kPa, x1 = 0.801	704.77
397.27 K, 54850 kPa, x1 = 0.611	689.91
397.27 K, 54860 kPa, x1 = 0.801	709.87
397.27 K, 59840 kPa, x1 = 0.611	694.59
397.27 K, 64820 kPa, x1 = 0.801	719.28
397.27 K, 64860 kPa, x1 = 0.4	733.56
397.27 K, 64860 kPa, x1 = 0.8992	733.56
397.27 K, 69920 kPa, x1 = 0.611	703.34
397.27 K, 69920 kPa, x1 = 0.801	723.77
397.27 K, 79800 kPa, x1 = 0.4	746.33
397.27 K, 79800 kPa, x1 = 0.8992	746.33
397.27 K, 79900 kPa, x1 = 0.801	731.97
397.27 K, 79910 kPa, x1 = 0.611	711.27
397.27 K, 84880 kPa, x1 = 0.611	715
397.27 K, 84880 kPa, x1 = 0.801	735.83
397.27 K, 89870 kPa, x1 = 0.611	718.57
397.27 K, 89870 kPa, x1 = 0.801	739.53
397.27 K, 94750 kPa, x1 = 0.4	757.72
397.27 K, 94750 kPa, x1 = 0.8992	757.72
397.27 K, 94840 kPa, x1 = 0.801	743.11
397.27 K, 94850 kPa, x1 = 0.611	722.01
397.27 K, 99720 kPa, x1 = 0.4	761.24
397.27 K, 99720 kPa, x1 = 0.8992	761.24
397.27 K, 99830 kPa, x1 = 0.611	725.33
397.27 K, 104800 kPa, x1 = 0.611	728.56
397.27 K, 104800 kPa, x1 = 0.801	749.91
397.27 K, 109770 kPa, x1 = 0.611	731.66
397.27 K, 119830 kPa, x1 = 0.801	759.4
397.27 K, 124560 kPa, x1 = 0.4	777.29
397.27 K, 124560 kPa, x1 = 0.8992	777.29
397.27 K, 129820 kPa, x1 = 0.4	780.45
397.27 K, 129820 kPa, x1 = 0.8992	780.45
397.27 K, 129840 kPa, x1 = 0.801	765.29
397.28 K, 1470 kPa, x1 = 0.7024	615.75
397.28 K, 1500 kPa, x1 = 0.492	600.98
397.28 K, 4850 kPa, x1 = 0.7024	624.89
397.28 K, 4860 kPa, x1 = 0.492	609.77
397.28 K, 9830 kPa, x1 = 0.7024	636.41
397.28 K, 9850 kPa, x1 = 0.492	620.92
397.28 K, 14840 kPa, x1 = 0.7024	646.37
397.28 K, 14860 kPa, x1 = 0.492	630.52
397.28 K, 19840 kPa, x1 = 0.7024	655.11
397.28 K, 24820 kPa, x1 = 0.7024	662.95
397.28 K, 29820 kPa, x1 = 0.7024	670.12
397.28 K, 29840 kPa, x1 = 0.492	653.43
397.28 K, 29860 kPa, x1 = 0.801	680.72
397.28 K, 34830 kPa, x1 = 0.7024	676.7
397.28 K, 34860 kPa, x1 = 0.492	659.77
397.28 K, 39840 kPa, x1 = 0.7024	682.81
397.28 K, 39850 kPa, x1 = 0.801	693.57
397.28 K, 44820 kPa, x1 = 0.7024	688.48
397.28 K, 44860 kPa, x1 = 0.492	671.15
397.28 K, 49810 kPa, x1 = 0.7024	693.79
397.28 K, 54840 kPa, x1 = 0.492	681.14
397.28 K, 54910 kPa, x1 = 0.7024	698.93
397.28 K, 59840 kPa, x1 = 0.492	685.74
397.28 K, 59850 kPa, x1 = 0.801	714.7
397.28 K, 59860 kPa, x1 = 0.7024	703.65
397.28 K, 64820 kPa, x1 = 0.492	690.08
